The values that follow come from ChEMBL document CHEMBL4028852, “Design of a Chemical Probe for the Bromodomain and Plant Homeodomain Finger-Containing (BRPF) Family of Proteins” (J Med Chem, 2017).

The structures appear in SMILES notation. pIC50, pKd: −log10 of the molar value. A value given as a limit tells only on which side of the number the result lay.

The target in data set [1] is T1, ATPase family AAA domain-containing protein 2B (Homo sapiens, UniProt Q9ULI0).
T1 sequence (Q9ULI0 whole entry): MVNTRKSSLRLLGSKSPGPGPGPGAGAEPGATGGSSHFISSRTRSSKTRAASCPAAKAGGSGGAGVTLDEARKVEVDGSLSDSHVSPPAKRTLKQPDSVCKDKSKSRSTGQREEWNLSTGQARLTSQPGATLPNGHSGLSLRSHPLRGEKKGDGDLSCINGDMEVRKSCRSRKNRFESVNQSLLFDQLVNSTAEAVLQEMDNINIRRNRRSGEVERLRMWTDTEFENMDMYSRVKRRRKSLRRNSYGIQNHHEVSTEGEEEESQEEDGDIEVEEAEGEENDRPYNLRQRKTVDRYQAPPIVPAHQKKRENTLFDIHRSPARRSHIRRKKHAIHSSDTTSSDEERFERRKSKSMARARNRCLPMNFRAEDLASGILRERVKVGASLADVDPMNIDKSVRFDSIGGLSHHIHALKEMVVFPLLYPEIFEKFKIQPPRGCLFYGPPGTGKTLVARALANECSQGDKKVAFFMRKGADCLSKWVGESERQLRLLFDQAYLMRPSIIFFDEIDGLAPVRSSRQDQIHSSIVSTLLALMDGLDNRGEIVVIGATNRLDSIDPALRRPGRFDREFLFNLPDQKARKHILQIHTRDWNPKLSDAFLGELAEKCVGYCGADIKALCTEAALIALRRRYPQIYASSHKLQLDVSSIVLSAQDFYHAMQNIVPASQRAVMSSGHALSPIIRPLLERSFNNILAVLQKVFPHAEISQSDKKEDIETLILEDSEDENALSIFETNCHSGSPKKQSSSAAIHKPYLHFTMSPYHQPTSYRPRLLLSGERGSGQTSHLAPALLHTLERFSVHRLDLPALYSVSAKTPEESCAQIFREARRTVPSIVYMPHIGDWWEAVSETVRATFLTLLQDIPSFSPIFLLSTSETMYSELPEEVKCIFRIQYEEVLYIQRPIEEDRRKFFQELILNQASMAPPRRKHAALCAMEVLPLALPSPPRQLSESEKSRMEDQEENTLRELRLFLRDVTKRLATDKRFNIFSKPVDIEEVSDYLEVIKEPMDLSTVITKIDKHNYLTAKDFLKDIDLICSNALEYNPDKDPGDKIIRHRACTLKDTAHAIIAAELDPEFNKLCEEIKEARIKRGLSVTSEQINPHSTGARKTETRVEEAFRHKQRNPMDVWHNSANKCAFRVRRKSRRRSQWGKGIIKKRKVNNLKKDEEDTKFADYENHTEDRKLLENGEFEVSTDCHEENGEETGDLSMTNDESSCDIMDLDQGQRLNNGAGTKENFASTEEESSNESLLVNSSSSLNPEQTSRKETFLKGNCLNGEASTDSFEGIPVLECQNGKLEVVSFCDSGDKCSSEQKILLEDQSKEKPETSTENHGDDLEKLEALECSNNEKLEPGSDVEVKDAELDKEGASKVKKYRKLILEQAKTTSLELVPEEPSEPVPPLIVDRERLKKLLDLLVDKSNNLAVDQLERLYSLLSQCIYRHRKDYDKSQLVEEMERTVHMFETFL
The experiment in a line: Inhibition of human ATAD2B (955 to 1082 residues) expressed in Escherichia coli BL21 after 1 hr by BROMOscan assay.

The next data set has as its system Liver. Nature of the data set: Metabolic stability in mouse liver microsomes by UPLC-MS/MS analysis. The data set is classed as ADME, microsome. In general terms: Liver microsomes are vesicles of endoplasmic reticulum, rich in cytochrome P450 enzymes.
Another data set concerns NCI-H1703. Nature of the data set: Inhibition of cell proliferation of human NCI-H1703 cells after 72 hrs by MTS assay. Type of data set: functional. The following applies: NCI-H1703, 72 h. On the technique in general: Tetrazolium dyes change colour on reduction, which living cells bring about.
Data set [2] addresses T2, Bromodomain-containing protein 9 (Homo sapiens, UniProt Q9H8M2).
T2 sequence (Q9H8M2 whole entry): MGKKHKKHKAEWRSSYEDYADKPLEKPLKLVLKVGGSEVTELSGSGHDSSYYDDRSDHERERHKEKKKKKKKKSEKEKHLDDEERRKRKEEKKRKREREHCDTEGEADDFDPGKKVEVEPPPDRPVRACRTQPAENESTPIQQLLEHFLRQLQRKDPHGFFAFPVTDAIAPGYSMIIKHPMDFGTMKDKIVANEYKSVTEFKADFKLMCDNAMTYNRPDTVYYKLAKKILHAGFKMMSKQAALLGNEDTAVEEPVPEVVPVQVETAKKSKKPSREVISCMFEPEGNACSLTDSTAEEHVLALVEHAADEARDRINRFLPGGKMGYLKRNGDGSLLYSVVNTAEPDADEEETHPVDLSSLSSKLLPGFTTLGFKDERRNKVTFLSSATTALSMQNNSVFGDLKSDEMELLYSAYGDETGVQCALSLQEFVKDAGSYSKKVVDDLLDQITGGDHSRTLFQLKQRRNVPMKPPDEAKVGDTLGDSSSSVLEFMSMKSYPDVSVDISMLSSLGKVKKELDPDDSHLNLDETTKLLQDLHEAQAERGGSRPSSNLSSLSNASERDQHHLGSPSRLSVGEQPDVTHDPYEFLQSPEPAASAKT
Nature of the data set: Binding affinity to BRD9 (unknown origin) by isothermal titration calorimetry.

The target in another data set is KCNQ1/minK (Homo sapiens, UniProt P51787+Q8N4C8). Nature of the data set: Inhibition of KCNQ1/minK (unknown origin) at 30 uM. The data set is classed as protein-complex assay.
KCNQ1/minK, sequence (P51787 whole entry): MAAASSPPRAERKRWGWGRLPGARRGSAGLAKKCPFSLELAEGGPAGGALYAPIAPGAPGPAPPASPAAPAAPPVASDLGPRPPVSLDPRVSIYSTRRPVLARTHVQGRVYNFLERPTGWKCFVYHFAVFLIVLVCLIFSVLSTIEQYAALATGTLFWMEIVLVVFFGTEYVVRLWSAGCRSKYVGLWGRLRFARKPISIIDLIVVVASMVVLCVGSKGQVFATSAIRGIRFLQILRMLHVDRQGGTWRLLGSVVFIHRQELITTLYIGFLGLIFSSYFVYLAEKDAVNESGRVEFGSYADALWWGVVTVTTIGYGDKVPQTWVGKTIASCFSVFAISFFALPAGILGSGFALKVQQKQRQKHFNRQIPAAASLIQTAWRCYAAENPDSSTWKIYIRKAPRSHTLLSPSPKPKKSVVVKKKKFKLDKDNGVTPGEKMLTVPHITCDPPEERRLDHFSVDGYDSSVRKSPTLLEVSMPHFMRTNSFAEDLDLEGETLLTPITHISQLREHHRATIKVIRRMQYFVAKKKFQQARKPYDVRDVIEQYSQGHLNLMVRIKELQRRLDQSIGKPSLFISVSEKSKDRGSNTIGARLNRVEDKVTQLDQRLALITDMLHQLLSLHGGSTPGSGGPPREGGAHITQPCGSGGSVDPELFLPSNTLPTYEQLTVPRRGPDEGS
KCNQ1/minK, sequence (Q8N4C8 whole entry): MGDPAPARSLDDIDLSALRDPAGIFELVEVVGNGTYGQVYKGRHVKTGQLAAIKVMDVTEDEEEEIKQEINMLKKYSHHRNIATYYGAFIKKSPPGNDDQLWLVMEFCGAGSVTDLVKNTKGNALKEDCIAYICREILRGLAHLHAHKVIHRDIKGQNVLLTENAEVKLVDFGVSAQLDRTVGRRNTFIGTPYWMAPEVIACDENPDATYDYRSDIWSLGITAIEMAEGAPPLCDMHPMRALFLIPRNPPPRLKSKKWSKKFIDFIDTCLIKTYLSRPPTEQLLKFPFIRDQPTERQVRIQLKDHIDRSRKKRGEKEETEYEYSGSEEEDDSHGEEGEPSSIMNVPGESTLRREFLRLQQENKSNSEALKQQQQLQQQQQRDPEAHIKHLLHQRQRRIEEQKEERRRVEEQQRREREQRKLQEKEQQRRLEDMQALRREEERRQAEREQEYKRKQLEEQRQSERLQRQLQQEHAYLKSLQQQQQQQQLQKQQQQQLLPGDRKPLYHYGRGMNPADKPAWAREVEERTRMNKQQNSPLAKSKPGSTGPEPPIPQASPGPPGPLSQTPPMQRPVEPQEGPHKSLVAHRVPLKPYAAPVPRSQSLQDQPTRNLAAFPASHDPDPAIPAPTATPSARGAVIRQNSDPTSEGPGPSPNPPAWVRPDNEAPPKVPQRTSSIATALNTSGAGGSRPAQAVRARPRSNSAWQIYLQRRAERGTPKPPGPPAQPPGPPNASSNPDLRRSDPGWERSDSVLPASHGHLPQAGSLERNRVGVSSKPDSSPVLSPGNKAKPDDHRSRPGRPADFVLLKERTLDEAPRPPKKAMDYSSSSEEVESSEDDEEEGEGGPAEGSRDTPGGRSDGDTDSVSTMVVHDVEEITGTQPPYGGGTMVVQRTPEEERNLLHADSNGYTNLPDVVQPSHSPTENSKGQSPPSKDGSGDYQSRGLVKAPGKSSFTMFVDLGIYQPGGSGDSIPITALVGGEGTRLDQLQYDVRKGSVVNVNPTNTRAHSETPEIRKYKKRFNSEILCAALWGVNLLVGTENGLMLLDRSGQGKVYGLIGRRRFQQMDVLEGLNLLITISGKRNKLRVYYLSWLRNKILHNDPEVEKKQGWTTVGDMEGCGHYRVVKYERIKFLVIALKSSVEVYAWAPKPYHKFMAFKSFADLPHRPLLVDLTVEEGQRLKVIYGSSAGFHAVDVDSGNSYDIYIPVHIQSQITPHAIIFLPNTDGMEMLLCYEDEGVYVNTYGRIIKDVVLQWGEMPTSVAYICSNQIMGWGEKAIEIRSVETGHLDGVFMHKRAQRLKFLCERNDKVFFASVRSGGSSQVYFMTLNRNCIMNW
The target in the next data set is T3, Kir2.1 (Homo sapiens, UniProt P63252).
T3 sequence (P63252 whole entry): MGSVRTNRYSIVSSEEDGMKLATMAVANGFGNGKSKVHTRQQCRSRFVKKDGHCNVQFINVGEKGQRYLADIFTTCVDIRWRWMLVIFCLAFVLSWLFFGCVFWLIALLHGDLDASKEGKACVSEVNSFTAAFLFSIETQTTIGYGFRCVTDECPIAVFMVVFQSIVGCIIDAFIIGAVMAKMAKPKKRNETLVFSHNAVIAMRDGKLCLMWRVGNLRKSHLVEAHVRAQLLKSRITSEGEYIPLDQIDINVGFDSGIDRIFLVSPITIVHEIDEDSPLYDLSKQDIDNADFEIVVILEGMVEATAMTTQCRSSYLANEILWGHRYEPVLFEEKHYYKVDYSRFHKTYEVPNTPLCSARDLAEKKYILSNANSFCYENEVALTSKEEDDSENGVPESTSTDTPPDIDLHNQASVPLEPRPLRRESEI
Nature of the data set: Inhibition of Kir2.1 (unknown origin) at 30 uM.

One may read the pIC50 as the IC50 on a negative log10 scale, so that one unit is a factor of ten. A low value points to a large IC50. Usually GI50 stands for the concentration at which growth is held to half of that of the control. A word on the pKd: it is the Kd on a negative log10 scale, so that one unit is a factor of ten. Read a low pKd as a large Kd. What is called inhibition is the share of the control response that was lost under treatment. A lower inhibition goes with little suppression. On to `COc1cc(C#N)ccc1S(=O)(=O)Nc1ccc2c(c1)cc(C)c(=O)n2C`, for which the pIC50 in data set [1] was below 4.00. In addition, the Stability result with Liver is recorded as “Stable”. Further, in the data set on NCI-H1703, the GI50 came out at 10.4 µM. This compound had a pKd in data set [2] of 6.00. Further, the inhibition at 30 µM at KCNQ1/minK and on Kir2.1 was below 40% throughout.
